# Measured values taken from patent US7524823B2, “Macrolides” (Basilea Pharmaceutica AG, priority 2005, dated 2009).
# Where two headings read alike, the source gives them in different places.
# Columns and labels:
# Assay type in all cases: cell-based
# [1] = test system: Escherichia coli ATCC 25922; assay: MIC by broth microdilution (CAMHB, NCCLS); settings: code C: Escherichia coli ATCC 25922
# Method: (§1) MIC values for non-anaerobes were obtained by broth microdilution using CAMHB (BBL) according to NCCLS guidelines (National Committee for Clinical Laboratory Standards. Methods for dilution antimicrobial susceptibility tests for bacteria that grow aerobically, 5th ed. Approved standard M7-A6. NCCLS, Wayne, Pa., 2003). Drugs were dissolved in DMSO prior to dispensing into 96-well microtitre plates; the concentration of DMSO in assay wells never exceeded 2% (v/v). CAMHB was supplemented with 5% (v/v) horse serum (Sigma, cat. no. H-1270) in lieu of laked horse blood for cultivation of Streptococcus pneumoniae, and with 5% (v/v) Fildes enrichment (BBL, cat. no. 220810) supernate in lieu of Haemophilus Test Medium and additives for cultivation of Haemophilus influenzae (Pankuch G A, Hoellman D B, Lin G, Bajaksouzian S, Jacobs M R, Appelbaum P C. Activity of HMR 3647 compared to those of five agents against Haemophilus influenzae and Moraxella catarrhalis by MIC determination and time-kill assay. Antimicrob. Agents Chemother. November 1998; 42(11): 3032-4). Activities expressed as the minimal inhibitory concentrations (MICs) (μg/ml) are given in the following Table 3, and the microorganisms used for testing are listed in Table 2 below.
# [2] = test system: Staphylococcus aureus ATCC 29213; assay: MIC by broth microdilution (CAMHB, NCCLS); settings: code A: Staphylococcus aureus ATCC 29213
# Method: as §1
# [3] = test system: Staphylococcus aureus 1086; assay: MIC by broth microdilution (CAMHB, NCCLS); settings: code B: Staphylococcus aureus 1086
# Method: as §1
# [4] = test system: Streptococcus pneumoniae SL199T; assay: MIC by broth microdilution (CAMHB + 5% horse serum, NCCLS); settings: code E: Streptococcus pneumoniae SL199T
# Method: as §1
# [5] = test system: Streptococcus pneumoniae Tupelo; assay: as above; settings: code F: Streptococcus pneumoniae Tupelo
# Method: as §1
# [6] = test system: Streptococcus pneumoniae 1/1; assay: as above; settings: code D: Streptococcus pneumoniae 1/1
# Method: as §1
# [7] = test system: Propionibacterium acnes SW101T; assay: MIC by anaerobic broth microdilution (WCB, NCCLS); settings: code K: Propionibacterium acnes SW101T, 35-37° C., 48 h
# Method: (§2) MIC values towards strains of propionibacteria were obtained by broth microdilution using WCB (Anaerobe Broth MIC, Difco) according to NCCLS guidelines (National Committee for Clinical Laboratory Standards. Methods for anti-microbial susceptibility testing of anaerobic bacteria, 5th ed.; approved standard. NCCLS publication no. M11-A5. NCCLS, Wayne, Pa., 2001). Microtitre plates were loaded into 7-L GENbox anaerobic incubation jars (BioMérieux, cat. no. 96 128) fitted with anaerobic atmosphere generators (BioMérieux, cat. no. 96 124) and a Dry Anaerobic Indicator Strip (BBL, cat. no. 271051). Under these conditions, an O2 concentration <0.1% was achieved by 2.5 h, and a CO2 concentration >15% by 24 h. MIC values were read after incubation at 35-37° C. for 48 h (Table 3).
# [8] = test system: Propionibacterium acnes EG7NS; assay: MIC by anaerobic broth microdilution (WCB, NCCLS); settings: code I: Propionibacterium acnes EG7NS, anaerobic, 35-37° C., 48 h
# Method: as §2
# [9] = test system: Haemophilus influenzae 12214; assay: MIC by broth microdilution (CAMHB + 5% Fildes enrichment, NCCLS); settings: code G: Haemophilus influenzae 12214
# Method: as §1
# [10] = test system: Haemophilus influenzae QK50; assay: as above; settings: code H: Haemophilus influenzae QK50
# Method: as §1
# [11] = Cutibacterium acnes, read-out: MIC
SMILES,MIC [1] [µg/mL],MIC [2] [µg/mL],MIC [3],MIC [4] [µg/mL],MIC [5] [µg/mL],MIC [6],MIC [7] [µg/mL],MIC [8],MIC [9] [µg/mL],MIC [10] [µg/mL],"MIC [7, 11] [µg/mL]","MIC [8, 11] [µg/mL]"
CC[C@H]1OC(=O)[C@H](C)[C@@H](O[C@H]2C[C@@](C)(OC)[C@@H](O)[C@H](C)O2)[C@H](C)[C@@H](O[C@@H]2O[C@H](C)C[C@H](N(C)C)[C@H]2O)[C@](C)(OC)C[C@@H](C)C(=O)[C@H](C)[C@H]2[C@H](SCCn3cnc4cncnc43)C(=O)O[C@@]21C [Example 20],>32,1,>32 µg/mL,0.5,1,<=0.06 μg/ml,8,<=0.06 μg/ml,1,1,–,–
CC[C@H]1OC(=O)[C@H](C)[C@@H](O[C@H]2C[C@@](C)(OC)[C@@H](O)[C@H](C)O2)[C@H](C)[C@@H](O[C@@H]2O[C@H](C)C[C@H](N(C)C)[C@H]2O)[C@](C)(OC)C[C@@H](C)C(=O)[C@H](C)[C@H]2[C@H](SCC(=O)Nc3cccc4cccnc34)C(=O)O[C@@]21C [Example 25],>32,1,16 µg/mL,1,0.5,<=0.06 μg/ml,4,<=0.06 μg/ml,4,4,–,–
CC[C@H]1OC(=O)[C@H](C)[C@@H](O[C@H]2C[C@@](C)(OC)[C@@H](O)[C@H](C)O2)[C@H](C)[C@@H](O[C@@H]2O[C@H](C)C[C@H](N(C)C)[C@H]2O)[C@](C)(OC)C[C@@H](C)C(=O)[C@H](C)[C@H]2[C@H](SCCCn3cnc4cccnc43)C(=O)O[C@@]21C [Example 12],>32,2,8 µg/mL,0.5,1,<=0.06 μg/ml,8,<=0.06 μg/ml,4,8,–,–
CC[C@H]1OC(=O)[C@H](C)[C@@H](O[C@H]2C[C@@](C)(OC)[C@@H](O)[C@H](C)O2)[C@H](C)[C@@H](O[C@@H]2O[C@H](C)C[C@H](N(C)C)[C@H]2O)[C@](C)(OC)C[C@@H](C)C(=O)[C@H](C)[C@H]2[C@H](SCC(=O)c3csc4ccccc34)C(=O)O[C@@]21C [Example 28],>32,2,16 µg/mL,4,4,0.25 µg/mL,8,0.125 µg/mL,8,16,–,–
CC[C@H]1OC(=O)[C@H](C)[C@@H](O[C@H]2C[C@@](C)(OC)[C@@H](O)[C@H](C)O2)[C@H](C)[C@@H](O[C@@H]2O[C@H](C)C[C@H](N(C)C)[C@H]2O)[C@](C)(OC)C[C@@H](C)C(=O)[C@H](C)[C@H]2[C@H](SCC(=O)c3ccc(OC)cc3OC)C(=O)O[C@@]21C [Example 27],>32,1,>32 µg/mL,4,4,<=0.06 μg/ml,>32,<=0.06 μg/ml,8,8,–,–
CC[C@H]1OC(=O)[C@H](C)[C@@H](O[C@H]2C[C@@](C)(OC)[C@@H](O)[C@H](C)O2)[C@H](C)[C@@H](O[C@@H]2O[C@H](C)C[C@H](N(C)C)[C@H]2O)[C@](C)(OC)C[C@@H](C)C(=O)[C@H](C)[C@H]2[C@H](SCC(=O)c3ccc4c(c3)OCO4)C(=O)O[C@@]21C [Example 29],32,1,>32 µg/mL,4,4,<=0.06 μg/ml,>32,<=0.06 μg/ml,4,4,–,–
CC[C@H]1OC(=O)[C@H](C)[C@@H](O[C@H]2C[C@@](C)(OC)[C@@H](O)[C@H](C)O2)[C@H](C)[C@@H](O[C@@H]2O[C@H](C)C[C@H](N(C)C)[C@H]2O)[C@](C)(OC)C[C@@H](C)C(=O)[C@H](C)[C@H]2[C@H](SCCNc3ncnc4[nH]cnc34)C(=O)O[C@@]21C [Example 9],>32,4,>32 µg/mL,0.25,1,<=0.06 μg/ml,4,0.125 µg/mL,2,2,–,–
CC[C@H]1OC(=O)[C@H](C)[C@@H](O[C@H]2C[C@@](C)(OC)[C@@H](O)[C@H](C)O2)[C@H](C)[C@@H](O[C@@H]2O[C@H](C)C[C@H](N(C)C)[C@H]2O)[C@](C)(OC)C[C@@H](C)C(=O)[C@H](C)[C@H]2[C@H](SCCn3cncn3)C(=O)O[C@@]21C [Example 18],32,1,>=32 μg/ml,2,4,<=0.06 μg/ml,>32,<=0.06 μg/ml,2,2,–,–
CC[C@H]1OC(=O)[C@H](C)[C@@H](O[C@H]2C[C@@](C)(OC)[C@@H](O)[C@H](C)O2)[C@H](C)[C@@H](O[C@@H]2O[C@H](C)C[C@H](N(C)C)[C@H]2O)[C@](C)(OC)C[C@@H](C)C(=O)[C@H](C)[C@H]2[C@H](SCCOCn3cnc4cccnc43)C(=O)O[C@@]21C [Example 2],>32,2,8 µg/mL,0.5,0.5,<=0.06 μg/ml,16,<=0.06 μg/ml,4,8,–,–
CC[C@H]1OC(=O)[C@H](C)[C@@H](O[C@H]2C[C@@](C)(OC)[C@@H](O)[C@H](C)O2)[C@H](C)[C@@H](O[C@@H]2O[C@H](C)C[C@H](N(C)C)[C@H]2O)[C@](C)(OC)C[C@@H](C)C(=O)[C@H](C)[C@H]2[C@H](SCCN(C)CCn3cnc4c(N)ncnc43)C(=O)O[C@@]21C [Example 14],>32,2,16 µg/mL,0.5,1,<=0.06 μg/ml,16,<=0.06 μg/ml,8,8,–,–
"CN(C)[C@@H]1C(O)=C(C(N)=O)C(=O)[C@@]2(O)C(O)=C3C(=O)c4c(O)cccc4[C@@](C)(O)[C@H]3C[C@@H]12 [Tetracycline, reference compound]",–,–,–,–,–,–,–,–,–,–,32,≤ 0.06
CC[C@H]1OC(=O)[C@H](C)[C@@H](O[C@H]2C[C@@](C)(OC)[C@@H](O)[C@H](C)O2)[C@H](C)[C@@H](O[C@@H]2O[C@H](C)C[C@H](N(C)C)[C@H]2O)[C@](C)(OC)C[C@@H](C)C(=O)[C@H](C)[C@H]2[C@H](SCCn3cnc4ccccc43)C(=O)O[C@@]21C [Example 19],>32,1,>32 µg/mL,0.5,1,<=0.06 μg/ml,4,<=0.06 μg/ml,2,2,–,–
"CCC[C@@H]1C[C@@H](C(=O)N[C@@H]([C@H]2O[C@H](SC)[C@H](O)[C@@H](O)[C@H]2O)[C@H](C)Cl)N(C)C1 [Clindamycin, reference compound]",–,–,–,–,–,–,–,–,–,–,> 32,≤ 0.06
